Converted amounts (≈) assume the structure as drawn.
What was measured:
[1] = test system: Candida albicans; test: Antifungal activity against Candida albicans MY1055 assessed as growth inhibition after 24 hrs by liquid microdilution assay; type: functional; conditions: MY1055, 24 h
[2] = Inhibition of rat liver NADH:cytochrome bc1 reductase
[3] = Inhibition of Candida albicans MY1055 NADH:cytochrome bc1 reductase

SMILES	MIC [1] [µg/mL]	IC50 [2] [µg/mL]	IC50 [3] [µg/mL]
C/C=C/[C@@H]1[C@H]2C[C@@H](CO)CC[C@@H]2C(C)=C[C@H]1C(=O)c1c(O)c(-c2ccc(OC(C)=O)cc2)c[nH]c1=O	0.5 (≈ 1.02 µM)	> 0.8	0.16 (≈ 0.325 µM)
C/C=C/[C@@H]1[C@H]2C[C@@H](C)CC[C@@H]2C(C)=C[C@H]1C(=O)c1c(O)c(-c2ccc(OC(=O)Nc3ccc(Br)cc3)cc2)c[nH]c1=O	5 (≈ 7.92 µM)	1 (≈ 1.58 µM)	0.2 (≈ 0.317 µM)
C/C=C/c1c(C(=O)c2c(O)c(-c3ccc(O)cc3)c[nH]c2=O)cc(C)c2c1C[C@@H](C)CC2	> 1		
C/C=C/[C@@H]1[C@H]2C[C@@H](CO)CC[C@@H]2C(C)=C[C@H]1C(=O)c1c(O)c(-c2ccc(OC(=O)CC)cc2)c[nH]c1=O	0.25 (≈ 0.494 µM)	> 0.8	0.008 (≈ 0.0158 µM)
C/C=C/[C@@H]1[C@H]2C[C@@H](C)CC[C@@H]2C(C)=C[C@H]1C(=O)c1c(O)c(-c2ccc(OCC#N)cc2)c[nH]c1=O	0.125 (≈ 0.265 µM)	1 (≈ 2.12 µM)	0.006 (≈ 0.0127 µM)
C/C=C/[C@@H]1[C@H]2C[C@@H](C)CC[C@@H]2[C@](C)(I)[C@H]2Oc3ncc(-c4ccc(O)c(I)c4)c(O)c3C(=O)[C@@H]12	> 5		
C/C=C/[C@@H]1[C@H]2C[C@@H](C)CC[C@@H]2C(C)=C[C@H]1C(=O)c1c(OC)c(-c2ccc(OC)cc2)cn(C)c1=O	> 1		1 (≈ 2.1 µM)
C/C=C/[C@@H]1[C@H]2C[C@@H](C)CC[C@@H]2[C@](C)(I)[C@H]2Oc3ncc(-c4ccc(O)cc4)c(O)c3C(=O)[C@@H]12	> 5	1 (≈ 1.79 µM)	1 (≈ 1.79 µM)
C/C=C/[C@@H]1[C@H]2C[C@@H](C)CC[C@@H]2[C@](C)(O)[C@H]2Oc3ncc(-c4ccc(O)cc4)c(O)c3C(=O)[C@@H]12	> 5	1 (≈ 2.22 µM)	> 1
C/C=C/[C@@H]1[C@H]2C[C@@H](C)CC[C@@H]2C(C)=C[C@H]1C(=O)c1c(O)c(-c2ccc(OC(=O)c3ccccc3)cc2)c[nH]c1=O	1 (≈ 1.86 µM)	1 (≈ 1.86 µM)	0.008 (≈ 0.0149 µM)
C/C=C/[C@@H]1[C@H]2C[C@@H](C)CC[C@@H]2C(C)=C[C@H]1C(=O)c1c(O)c(-c2ccc(OC(=O)C3CC3)cc2)c[nH]c1=O	0.062 (≈ 0.124 µM)	> 0.8	0.015 (≈ 0.0299 µM)
C/C=C/[C@@H]1[C@H]2C[C@@H](C)CC[C@@H]2[C@](C)(Cl)[C@H]2Oc3ncc(-c4ccc(O)cc4)c(O)c3C(=O)[C@@H]12	5 (≈ 10.7 µM)	1 (≈ 2.14 µM)	0.2 (≈ 0.427 µM)
C/C=C/[C@@H]1[C@H]2C[C@@H](C)CC[C@@H]2C(C)=C[C@H]1C(=O)c1c(O)c(-c2ccc(O)cc2)cn(CC(=O)O)c1=O	> 5	1 (≈ 2.03 µM)	> 1
C/C=C/[C@@H]1[C@H]2C[C@@H](C)CC[C@@H]2C(C)=C[C@H]1C(=O)c1c(O)c(-c2ccc(OC(=O)C3CCCC3)cc2)c[nH]c1=O	1 (≈ 1.89 µM)	> 0.8	0.01 (≈ 0.0189 µM)
C/C=C/[C@@H]1[C@H]2C[C@@H](C)CC[C@@H]2[C@](C)(Br)[C@H]2Oc3ncc(-c4ccc(O)c(Br)c4)c(O)c3C(=O)[C@@H]12	> 5	1 (≈ 1.69 µM)	> 1
C/C=C/[C@@H]1[C@H]2C[C@@H](C)CC[C@@H]2C(C)=C[C@H]1C(=O)c1c(O)c(-c2ccc(OC(=O)CCCCNC(=O)OC(C)(C)C)cc2)c[nH]c1=O	0.25 (≈ 0.395 µM)	> 1	0.005 (≈ 0.0079 µM)
C/C=C/[C@@H]1[C@H]2C[C@@H](C)CC[C@@H]2C(C)=C[C@H]1C(=O)c1c(O)c(-c2ccc(OCC#N)cc2)cn(CC#N)c1=O	1 (≈ 1.95 µM)		0.1 (≈ 0.195 µM)
C/C=C/[C@@H]1[C@H]2C[C@@H](C)CC[C@@H]2C(C)=C[C@H]1C(=O)c1c(O)c(-c2ccc(OC(=O)C/C=C/c3ccccc3)cc2)c[nH]c1=O	0.312 (≈ 0.54 µM)	1.6 (≈ 2.77 µM)	0.02 (≈ 0.0346 µM)
C/C=C/[C@@H]1[C@H]2C[C@@H](C)CC[C@@H]2C(C)=C[C@H]1C(=O)c1c(O)c(-c2ccc(OC(=O)c3ccsc3)cc2)c[nH]c1=O	1 (≈ 1.84 µM)	> 1	0.005 (≈ 0.0092 µM)

SMILES	MIC [1] [µg/mL]	IC50 [2] [µg/mL]	IC50 [3] [µg/mL]
C/C=C/[C@@H]1[C@H]2C[C@@H](C)CC[C@@H]2C(C)=C[C@H]1C(=O)c1c(O)c(-c2ccc(O)cc2)cn(CC)c1=O	0.312 (≈ 0.676 µM)		
C/C=C/[C@@H]1[C@H]2C[C@@H](COC(=O)CC)CC[C@@H]2C(C)=C[C@H]1C(=O)c1c(O)c(-c2ccc(OC(=O)CC)cc2)c[nH]c1=O	0.125 (≈ 0.223 µM)	> 0.8	0.01 (≈ 0.0178 µM)
C/C=C/[C@@H]1[C@H]2C[C@@H](C)CC[C@@H]2C(C)=C[C@H]1C(=O)c1c(O)c(-c2ccc(OC(=O)CNC(=O)OCC3c4ccccc4-c4ccccc43)cc2)c[nH]c1=O	0.125 (≈ 0.175 µM)	1 (≈ 1.4 µM)	0.006 (≈ 0.00842 µM)
C/C=C/[C@@H]1[C@H]2C[C@@H](COC(C)=O)CC[C@@H]2C(C)=C[C@H]1C(=O)c1c(O)c(-c2ccc(O)cc2)c[nH]c1=O	0.5 (≈ 1.02 µM)	> 1.6	0.0021 (≈ 0.00427 µM)
C/C=C/[C@H]1[C@@H]2C(=O)c3c(ncc(-c4ccc(O)cc4)c3O)O[C@@H]2C(C)=C2CC[C@H](C)C[C@@H]21	> 1		> 1
C/C=C/[C@@H]1[C@H]2C[C@@H](C)CC[C@@H]2C(C)=C[C@H]1C(=O)c1c(O)c(-c2ccc(OC)cc2)c[nH]c1=O	0.25 (≈ 0.559 µM)	0.2 (≈ 0.447 µM)	0.003 (≈ 0.0067 µM)
C/C=C/[C@@H]1[C@H]2C[C@@H](COC(=O)C3CC3)CC[C@@H]2C(C)=C[C@H]1C(=O)c1c(O)c(-c2ccc(OC(=O)C3CC3)cc2)c[nH]c1=O	> 5	0.01 (≈ 0.0171 µM)	0.0008 (≈ 0.00137 µM)
C/C=C/[C@@H]1[C@H]2C[C@@H](C)CC[C@@H]2C(C)=C[C@H]1C(=O)c1c(O)c(-c2ccc(O)cc2)cn(CC#N)c1=O	0.062 (≈ 0.131 µM)	0.8 (≈ 1.69 µM)	0.001 (≈ 0.00212 µM)
C/C=C/[C@@H]1[C@H]2C[C@@H](CO)CC[C@@H]2C(C)=C[C@H]1C(=O)c1c(O)c(-c2ccc(OC(=O)C3CC3)cc2)c[nH]c1=O	0.25 (≈ 0.483 µM)	0.008 (≈ 0.0155 µM)	0.002 (≈ 0.00386 µM)
C/C=C/[C@@H]1[C@H]2C[C@@H](C)CC[C@@H]2C(C)=C[C@H]1C(=O)c1c(O)c(-c2ccc(OC(=O)C3CCC3)cc2)c[nH]c1=O	0.062 (≈ 0.12 µM)	> 0.8	0.002 (≈ 0.00388 µM)
C/C=C/[C@@H]1[C@H]2C[C@@H](C)CC[C@@H]2[C@](C)(Br)[C@H]2Oc3ncc(-c4ccc(O)c(Br)c4Br)c(O)c3C(=O)[C@@H]12	> 5	1 (≈ 1.49 µM)	1 (≈ 1.49 µM)
C/C=C/[C@@H]1[C@H]2C[C@@H](C)CC[C@@H]2C(C)=C[C@H]1C(=O)c1c(O)c(-c2ccc(OC(=O)C3CCCCC3)cc2)c[nH]c1=O	> 1	> 1.6	0.4 (≈ 0.736 µM)
C/C=C/[C@@H]1[C@H]2C[C@@H](C)CC[C@@H]2C(C)=C[C@H]1C(=O)c1c(O)c(-c2ccc(OCC)cc2)c[nH]c1=O	> 5	1 (≈ 2.17 µM)	1 (≈ 2.17 µM)
C/C=C/[C@@H]1[C@H]2C[C@@H](C)CC[C@@H]2C(C)=C[C@H]1C(=O)c1c(O)c(-c2ccc(OC(=O)CC)cc2)c[nH]c1=O	0.125 (≈ 0.255 µM)	> 1.6	0.00081 (≈ 0.00165 µM)
C/C=C/[C@@H]1[C@H]2C[C@@H](C)CC[C@@H]2C(C)=C[C@H]1C(=O)c1c(O)c(-c2ccc(OCC(=O)OC(C)(C)C)cc2)cn(CC(=O)OC(C)(C)C)c1=O	> 5	1.6 (≈ 2.42 µM)	> 1.6
C/C=C/[C@@H]1[C@H]2C[C@@H](CO)CC[C@@H]2C(C)=C[C@H]1C(=O)c1c(O)c(-c2ccc(O)cc2)c[nH]c1=O	0.25 (≈ 0.556 µM)	0.4 (≈ 0.89 µM)	0.4 (≈ 0.89 µM)
C/C=C/[C@@H]1[C@H]2C[C@@H](C)CC[C@@H]2C(C)=C[C@H]1C(=O)c1c(O)c(-c2ccc(O)cc2)cn(CC(=O)OC(C)(C)C)c1=O	> 5	1.6 (≈ 2.92 µM)	> 1.6
C/C=C/[C@@H]1[C@H]2C[C@@H](C)CC[C@@H]2C(C)=C[C@H]1C(=O)c1c(O)c(-c2ccc(OC)cc2)cn(C)c1=O	> 1		0.008 (≈ 0.0173 µM)
C/C=C/[C@@H]1[C@H]2C[C@@H](C)CC[C@@H]2C(C)=C[C@H]1C(=O)c1c(O)c(-c2ccc(O)cc2)cn(CC(N)=O)c1=O	0.031 (≈ 0.0632 µM)		0.04 (≈ 0.0815 µM)
